From patent US20230158025A1 (UNIVERSITY OF UTAH RESEARCH FOUNDATION, priority 2020, published 2023)
Where two headings read alike, the source gives them in different places.

Assays:
recombinant human GALK1 = recombinant human GALK1 (Homo sapiens, UniProt P51570); test: hGALK1 biochemical activity assay (Kinase-Glo Plus, ATP depletion)
Method: In vitro hGALK1 activity assays were performed as previously described. Liu et al., Bioorg. Med. Chem. Lett. 25(3): 721-727 (2015), which is incorporated by reference herein for the specific teachings thereof. The biochemical assay was performed by coupling the activity of recombinant human or mouse GALK1 to the Kinase-Glo Plus luminescent ATP detection kit, using ATP depletion as a measure of GALK1 turnover. Specifically, three μL/well of ATP substrate solution (35 μM ATP) in assay buffer (20 mM HEPES pH 8.0, 5 mM MgCl2, 60 mM NaCl, 1 mM DTT, 0.01% BSA final concentration) was dispensed into 1536-well assay plates (Greiner, white solid-bottom medium-binding plates). Aliquots of compound (23 nL solubilized in DMSO) were transferred to the assay plates using a Kalypsys 1536-well pintool such that 11 concentrations with 1/3 dilutions ranging from 57.4 μM-0.97 nM are tested. One μL/well of GALK-galactose solution (5 nM GALK1, 100 μM galactose) in assay buffer was then added, yielding a final reaction volume of 4 μL/well. Following a 1-hour room temperature incubation, 4 μL of Kinase-Glo Plus detection reagent was added to provide an ATP-dependent luminescent readout (final assay volume: 8 μL/well).

recombinant mouse GALK1 = recombinant mouse GALK1 (Mus musculus, UniProt Q9R0N0); test: mGALK1 biochemical activity assay (Kinase-Glo Plus, ATP depletion)
recombinant mouse GALK1, sequence (Q9R0N0 whole entry): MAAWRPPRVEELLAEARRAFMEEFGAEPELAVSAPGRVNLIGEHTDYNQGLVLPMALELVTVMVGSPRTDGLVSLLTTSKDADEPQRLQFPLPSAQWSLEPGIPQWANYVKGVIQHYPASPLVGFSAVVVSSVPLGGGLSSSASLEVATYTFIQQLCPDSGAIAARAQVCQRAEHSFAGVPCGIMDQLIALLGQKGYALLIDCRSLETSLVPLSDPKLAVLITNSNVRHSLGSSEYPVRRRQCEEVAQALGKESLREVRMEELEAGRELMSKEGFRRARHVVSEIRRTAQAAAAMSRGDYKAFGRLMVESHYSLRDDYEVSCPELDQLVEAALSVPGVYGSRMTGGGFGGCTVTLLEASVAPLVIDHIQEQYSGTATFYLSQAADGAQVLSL
Method: In vitro hGALK1 activity assays were performed as previously described. Liu et al., Bioorg. […] The biochemical assay was performed by coupling the activity of recombinant human or mouse GALK1 to the Kinase-Glo Plus luminescent ATP detection kit, using ATP depletion as a measure of GALK1 turnover. […] One μL/well of GALK-galactose solution (5 nM GALK1, 100 μM galactose) in assay buffer was then added, yielding a final reaction volume of 4 μL/well. Following a 1-hour room temperature incubation, 4 μL of Kinase-Glo Plus detection reagent was added to provide an ATP-dependent luminescent readout (final assay volume: 8 μL/well).

[1] = aqueous kinetic solubility; settings: aqueous kinetic solubility
[2] = rat microsomal stability (RLM)
[3] = recombinant human GALK1, Kinase-Glo Plus ATP depletion, read-out: hGALK
[4] = recombinant mouse GALK1, Kinase-Glo Plus ATP depletion, read-out: mGALK
[5] = Tables 2-15, 35 μM ATP, 100 μM galactose, 1 h, bracketed figure after some values (e.g. −1.2) is undefined and not reported, read-out: hGALK IC50
[6] = Tables 2-15, 35 μM ATP, 100 μM galactose, 1 h, bracketed figure after some values is undefined and not reported, read-out: mGALK IC50

recombinant human GALK1, sequence (P51570 whole entry): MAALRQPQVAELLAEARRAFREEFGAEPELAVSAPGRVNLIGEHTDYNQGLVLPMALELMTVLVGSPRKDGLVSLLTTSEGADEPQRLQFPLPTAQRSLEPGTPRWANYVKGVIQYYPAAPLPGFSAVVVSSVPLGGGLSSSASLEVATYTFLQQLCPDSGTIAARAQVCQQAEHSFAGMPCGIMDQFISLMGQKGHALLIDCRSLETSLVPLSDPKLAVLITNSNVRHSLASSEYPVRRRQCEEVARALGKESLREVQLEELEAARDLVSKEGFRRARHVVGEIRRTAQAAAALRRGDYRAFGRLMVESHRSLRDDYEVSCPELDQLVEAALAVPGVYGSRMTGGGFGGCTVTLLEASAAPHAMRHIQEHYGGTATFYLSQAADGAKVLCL

In the case of `CC1=C(C(=O)NCc2cn(C)cn2)C(c2ccccc2Cl)N=C(Nc2nc3ccc(F)cc3o2)N1` (stereo not drawn) [Compound 34, 4-(2-chlorophenyl)-2-((6-fluorobenzo[d]oxazol-2-yl)amino)-6-methyl-N-((1-methyl-1H-imidazol-4-yl)methyl)-1,4-dihydropyrimidine-5-carboxamide], the IC50 (recombinant human GALK1; [3]) is reported as 8.63 µM and the IC50 (recombinant mouse GALK1; [4]) is reported as 19.3 µM.
With `CC1=C(C(=O)Nc2cncc(C(=O)O)c2)C(c2ccccc2Cl)N=C(Nc2nc3ccccc3o2)N1` (stereo not drawn) [Compound 202, 5-(2-(benzo[d]oxazol-2-ylamino)-4-(2-chlorophenyl)-6-methyl-1,4-dihydropyrimidine-5-carboxamido)nicotinic acid] the “Sol.” value [1] was 60.3 µg/mL, the IC50 (recombinant human GALK1; [5]) was 4.32 µM and the IC50 (recombinant human GALK1; [3]) was 4.32 µM. The “Metab. Stabil. (m)” value ([2]; microsomal stability half-life) was >30 m.
For `CCn1cc(CNC(=O)C2=C(C)NC(Nc3nc4cccc(N)c4o3)=NC2c2ccc(F)cc2Cl)cn1` (stereo not drawn) [Compound 118, 2-((7-aminobenzo[d]oxazol-2-yl)amino)-4-(2-chloro-4-fluorophenyl)-N-((1-ethyl-1H-pyrazol-4-yl)methyl)-6-methyl-1,4-dihydropyrimidine-5-carboxamide], the IC50 (recombinant human GALK1; [3]) was 0.76 µM, the IC50 (recombinant mouse GALK1; [4]) was 7.69 µM and the “Metab. Stabil. (m)” value ([2]; microsomal stability half-life) was 18.81 m. For the same compound, the “Perm. (1 × 10^−6 cm/sec)” value (PAMPA permeability; PAMPA) was 188.9 1 × 10^−6 cm/sec.
With `CC1=C(C(=O)Nc2cccc(CCO)c2)C(c2ccccc2Cl)N=C(Nc2nc3ccccc3o2)N1` (stereo not drawn) [Compound 201, 2-(benzo[d]oxazol-2-ylamino)-4-(2-chlorophenyl)-N-(3-(2-hydroxyethyl)phenyl)-6-methyl-1,4-dihydropyrimidine-5-carboxamide] the IC50 (recombinant human GALK1; [5]) was 17.2 µM, the IC50 (recombinant human GALK1; [3]) was 17.2 µM and the “Metab. Stabil. (m)” value ([2]; microsomal stability half-life) was 26.59 m.
With `CC1=C(C(=O)Nc2ccc(-n3cncn3)cc2)C(c2ccccc2Cl)N=C(Nc2nc3ccccc3o2)N1` (stereo not drawn) [Compound 191, N-(4-(1H-1,2,4-triazol-1-yl)phenyl)-2-(benzo[d]oxazol-2-ylamino)-4-(2-chlorophenyl)-6-methyl-1,4-dihydropyrimidine-5-carboxamide] the IC50 (recombinant human GALK1; [5]) was 24.3 µM, the IC50 (recombinant human GALK1; [3]) was 24.3 µM and the IC50 (recombinant mouse GALK1; [6]) was 34.3 µM. The IC50 (recombinant mouse GALK1; [4]) was 34.3 µM.
For `COC(=O)c1ccnc(NC(=O)C2=C(C)NC(Nc3nc4ccc(F)cc4o3)=N[C@H]2c2ccccc2Cl)c1` [Compound 31, (R)-methyl 2-(4-(2-chlorophenyl)-2-((6-fluorobenzo[d]oxazol-2-yl)amino)-6-methyl-1,4-dihydropyrimidine-5-carboxamido)isonicotinate], the IC50 (recombinant human GALK1; [3]) was 3.06 µM, the IC50 (recombinant mouse GALK1; [4]) was 4.32 µM and the “Metab. Stabil. (m)” value ([2]; microsomal half-life) was 30.91 m. For the same compound, the “Perm. (1 × 10^−6 cm/sec)” value (PAMPA permeability) was <21.9 1 × 10^−6 cm/sec.
With `CC1=C(C(=O)Nc2ccc(C(N)=O)cn2)C(c2ccccc2Cl)N=C(Nc2nc3ccc(F)cc3o2)N1` (stereo not drawn) [Compound 36, N-(5-carbamoylpyridin-2-yl)-4-(2-chlorophenyl)-2-((6-fluorobenzo[d]oxazol-2-yl)amino)-6-methyl-1,4-dihydropyrimidine-5-carboxamide] the IC50 (recombinant human GALK1; [3]) was 2.43 µM and the IC50 (recombinant mouse GALK1; [4]) was 6.85 µM.
With `CC1=C(C(=O)Nc2nc(C(=O)O)cs2)C(c2ccccc2Cl)N=C(Nc2nc3ccccc3o2)N1` (stereo not drawn) [Compound 200, 2-(2-(benzo[d]oxazol-2-ylamino)-4-(2-chlorophenyl)-6-methyl-1,4-dihydropyrimidine-5-carboxamido)thiazole-4-carboxylic acid] the IC50 (recombinant human GALK1; [5]) was 9.68 µM, the IC50 (recombinant human GALK1; [3]) was 9.68 µM and the IC50 (recombinant mouse GALK1; [6]) was 19.3 µM. The IC50 (recombinant mouse GALK1; [4]) was 19.3 µM.
For `CC1=C(C(=O)Nc2ccc(-c3nn[nH]n3)cn2)C(c2ccccc2Cl)N=C(Nc2nc3ccc(F)cc3o2)N1` (stereo not drawn) [Compound 35, N-(5-(2H-tetrazol-5-yl)pyridin-2-yl)-4-(2-chlorophenyl)-2-((6-fluorobenzo[d]oxazol-2-yl)amino)-6-methyl-1,4-dihydropyrimidine-5-carboxamide], the IC50 (recombinant human GALK1; [3]) was 4.85 µM and the IC50 (recombinant mouse GALK1; [4]) was 12.2 µM.
In the case of `CC1=C(C(=O)Nc2ccccc2C(=O)O)C(c2ccccc2Cl)N=C(Nc2nc3ccccc3o2)N1` (stereo not drawn) [Compound 159, 2-(2-(benzo[d]oxazol-2-ylamino)-4-(2-chlorophenyl)-6-methyl-1,4-dihydropyrimidine-5-carboxamido)benzoic acid], the IC50 (recombinant human GALK1; [3]) is reported as 34.4 µM.
For `CC1=C(C(=O)NCc2ccccc2O)C(c2ccccc2Cl)N=C(Nc2nc3ccccc3o2)N1` (stereo not drawn) [Compound 219, 2-(benzo[d]oxazol-2-ylamino)-4-(2-chlorophenyl)-N-(2-hydroxybenzyl)-6-methyl-1,4-dihydropyrimidine-5-carboxamide], the IC50 (recombinant human GALK1; [5]) was 6.85 µM, the IC50 (recombinant mouse GALK1; [6]) was 10.9 µM and the IC50 (recombinant mouse GALK1; [4]) was 10.9 µM. The “Metab. Stabil. (m)” value ([2]; microsomal stability half-life) was 5.188 m and the “Perm. (1 × 10^−6 cm/sec)” value (PAMPA permeability; PAMPA) was <19.3 1 × 10^−6 cm/sec.
In the case of `CC1=C(C(=O)Nc2ccc(-c3cn[nH]c3)cc2)C(c2ccccc2Cl)N=C(Nc2nc3ccccc3o2)N1` (stereo not drawn) [Compound 179, N-(4-(1H-pyrazol-4-yl)phenyl)-2-(benzo[d]oxazol-2-ylamino)-4-(2-chlorophenyl)-6-methyl-1,4-dihydropyrimidine-5-carboxamide], the IC50 (recombinant human GALK1; [5]) is reported as 6.85 µM, the IC50 (recombinant human GALK1; [3]) is reported as 6.85 µM and the IC50 (recombinant mouse GALK1; [6]) is reported as 12.2 µM. The IC50 (recombinant mouse GALK1; [4]) was 12.2 µM.
For `CC1=C(C(=O)Nc2cc(C(=O)O)ccn2)[C@H](c2ccccc2Cl)N=C(Nc2nc3cccc(N)c3o2)N1` [Compound 24, (R)-2-(2-((7-aminobenzo[d]oxazol-2-yl)amino)-4-(2-chlorophenyl)-6-methyl-1,4-dihydropyrimidine-5-carboxamido)isonicotinic acid], the IC50 (recombinant human GALK1; [5]) was 0.08 µM, the IC50 (recombinant human GALK1; [3]) was 0.86 µM and the IC50 (recombinant mouse GALK1; [6]) was 1.72 µM. The IC50 (recombinant mouse GALK1; [4]) was 1.72 µM.
`COc1ccc([C@@H]2N=C(Nc3nc4ccc(F)cc4o3)NC(C)=C2C(=O)Nc2cc(C(=O)O)ccn2)c(Cl)c1` [Compound 53, (R)-2-(4-(2-chloro-4-methoxyphenyl)-2-((6-fluorobenzo[d]oxazol-2-yl)amino)-6-methyl-1,4-dihydropyrimidine-5-carboxamido)isonicotinic acid] showed an IC50 (recombinant human GALK1; [5]) of 0.25 µM, an IC50 (recombinant human GALK1; [3]) of 0.25 µM and an IC50 (recombinant mouse GALK1; [6]) of 1.99 µM. For the same compound, the IC50 (recombinant mouse GALK1; [4]) was 1.99 µM.
Work on `COc1ccc([C@H]2N=C(Nc3nc4ccc(F)cc4o3)NC(C)=C2C(=O)Nc2cc(C(=O)O)ccn2)c(Cl)c1` [Compound 54, (S)-2-(4-(2-chloro-4-methoxyphenyl)-2-((6-fluorobenzo[d]oxazol-2-yl)amino)-6-methyl-1,4-dihydropyrimidine-5-carboxamido)isonicotinic acid] yielded an IC50 (recombinant human GALK1; [5]) of 4.84 µM, an IC50 (recombinant human GALK1; [3]) of 4.85 µM and an IC50 (recombinant mouse GALK1; [6]) of 19.3 µM. It also gave an IC50 (recombinant mouse GALK1; [4]) of 19.3 µM.
With `COC(=O)c1ccnc(NC(=O)C2=C(C)NC(Nc3nc4ccc(F)cc4o3)=N[C@@H]2c2ccccc2Cl)c1` [Compound 32, (S)-methyl 2-(4-(2-chlorophenyl)-2-((6-fluorobenzo[d]oxazol-2-yl)amino)-6-methyl-1,4-dihydropyrimidine-5-carboxamido)isonicotinate] the IC50 (recombinant human GALK1; [3]) was 12.2 µM, the IC50 (recombinant mouse GALK1; [4]) was 86.3 µM and the “Metab. Stabil. (m)” value ([2]; microsomal half-life) was 24.28 m. The “Perm. (1 × 10^−6 cm/sec)” value (PAMPA permeability) was <7.4 1 × 10^−6 cm/sec.
Work on `CC1=C(C(=O)Nc2ccc(O)cc2)C(c2ccccc2Cl)N=C(Nc2nc3ccccc3o2)N1` (stereo not drawn) [Compound 162, 2-(benzo[d]oxazol-2-ylamino)-N-(4-hydroxyphenyl)-4-(2-chlorophenyl)-6-methyl-1,4-dihydropyrimidine-5-carboxamide] yielded an IC50 (recombinant human GALK1; [3]) of 3.85 µM, an IC50 (recombinant mouse GALK1; [6]) of 9.68 µM and an IC50 (recombinant mouse GALK1; [4]) of 9.68 µM. The “Metab. Stabil. (m)” value ([2]; microsomal stability half-life) was >30 m and the “Perm. (1 × 10^−6 cm/sec)” value (PAMPA permeability; PAMPA) was <14.5 1 × 10^−6 cm/sec.
For `CC1=C(C(=O)Nc2cc(C(=O)O)ccc2C)C(c2ccccc2Cl)N=C(Nc2nc3ccc(F)cc3o2)N1` (stereo not drawn) [Compound 28, 3-(4-(2-chlorophenyl)-2-((6-fluorobenzo[d]oxazol-2-yl)amino)-6-methyl-1,4-dihydropyrimidine-5-carboxamido)-4-methylbenzoic acid], the IC50 (recombinant human GALK1; [3]) was 3.43 µM and the IC50 (recombinant mouse GALK1; [4]) was 17.2 µM.
With `COC(=O)c1ccccc1NC(=O)C1=C(C)NC(Nc2nc3ccccc3o2)=NC1c1ccccc1Cl` (stereo not drawn) [Compound 146] the “hGALK IC50” value (recombinant human GALK1; Tables 2-15, 35 μM ATP, 100 μM galactose, 1 h, bracketed figure after some values (e.g. −1.2) is undefined and not reported) was “inactive”, the “hGALK (μM)” value (recombinant human GALK1; recombinant human GALK1, Kinase-Glo Plus ATP depletion) was “in- active” and the “mGALK IC50” value (recombinant mouse GALK1; Tables 2-15, 35 μM ATP, 100 μM galactose, 1 h, bracketed figure after some values is undefined and not reported) was “inactive”. The “mGALK (μM)” value (recombinant mouse GALK1; recombinant mouse GALK1, Kinase-Glo Plus ATP depletion) was “in- active”.
